# Reference: ChEMBL document CHEMBL5370605, “Discovery of Novel Fedratinib-Based HDAC/JAK/BRD4 Triple Inhibitors with Remarkable Antitumor Activity against Triple Negative Breast Cancer” (J Med Chem, 2023)
# Key:
# [1] = target: Bromodomain-containing protein 4 (Homo sapiens, UniProt O60885); assay: Inhibition of recombinant BRD4 BD1 (unknown origin) using H4KAc as substrate incubated for 30 mins by HTRF analysis
# MDA-MB-231 [2] = assay: cells; details: Homo sapiens, MDA-MB-231, 48 h
# Histone deacetylase 1 = Histone deacetylase 1 (Homo sapiens, UniProt Q13547); assay: Inhibition of HDAC1 (unknown origin) using Boc-Lys(Ac)-AMC as substrate incubated for 30 mins by fluorescence based analysis
# in vitro = details: human, GES1 cells
# [3] = target: Tyrosine-protein kinase JAK1 (Homo sapiens, UniProt P23458); assay: Inhibition of JAK1 (unknown origin) incubated for 40 mins in presence of ATP by Kinase-glo luminescent assay
# [4] = Selectivity index, ratio of IC50 for human GES-1 cells to IC50 for human MDA-MB-231 cells
# [5] = Half life in ICR (CD-1) mouse at 10 mg/kg, iv measured for 24 hrs by LC-MS/MS analysis; assay type: ADME, organism-based; details: in vivo
# [6] = In vivo inhibition of HDAC1 in athymic BALB/c nude mouse xenografted with human MDA-MB-231 cells assessed as fold change in acetyl-histone H3 level in tumor at 25 mg/kg, ip administered for 28 consecutive days by Western blot analysis (reference value: 1); assay type: functional; details: time 28 day
# GES1 = assay: Cytotoxicity against human GES1 cells at 1 uM incubated for 48 hrs by MTT assay; assay type: toxicity, cell-based; details: ges1, 48 h
# [7] = Metabolic stability in mouse liver microsomes assessed as half life in presence of NADPH by LC-MS/MS analysis; assay type: ADME, Microsome
# [8] = AUC (0 to t) in ICR (CD-1) mouse at 10 mg/kg, iv measured for 24 hrs by LC-MS/MS analysis; assay type: ADME, organism-based; set-up: dose 10 mg/kg, time 24 hrs, route iv; details: in vivo
# [9] = Cytotoxicity against human GES1 cells assessed as inhibition of cell growth incubated for 48 hrs in presence of SAHA by MTT assay; assay type: toxicity, cell-based
# [10] = Toxicity in athymic BALB/c nude mouse xenografted with human MDA-MB-231 cells assessed as reduction in body weight at 50 mg/kg/day, ip administered for 2 days; assay type: organism-based; details: in vivo, 48 h, time 2 day
# [11] = In vivo inhibition of JAK1 in athymic BALB/c nude mouse xenografted with human MDA-MB-231 cells assessed as fold change in phosphorylated STAT3 level at Tyr705 residue in tumor at 25 mg/kg, ip administered for 28 consecutive days by Western blot analysis (reference value: 1); assay type: functional; details: time 28 day
# [12] = Volume of distribution at steady state in ICR (CD-1) mouse at 10 mg/kg, iv measured for 24 hrs by LC-MS/MS analysis; assay type: ADME, organism-based; details: in vivo
# [13] = AUC (0 to t) in ICR (CD-1) mouse at 50 mg/kg, ip measured for 24 hrs by LC-MS/MS analysis; assay type: ADME, organism-based; set-up: dose 50 mg/kg, time 24 hrs, route ip; details: in vivo
# [14] = Tmax in ICR (CD-1) mouse at 50 mg/kg, ip measured for 24 hrs by LC-MS/MS analysis; assay type: ADME, organism-based; details: in vivo
# [15] = In vivo inhibition of JAK1 in athymic BALB/c nude mouse xenografted with human MDA-MB-231 cells assessed as fold change in STAT3 level in tumor at 25 mg/kg, ip administered for 28 consecutive days by Western blot analysis (reference value: 1); assay type: functional; details: time 28 day
# [16] = Bioavailability in ICR (CD-1) mouse at 50 mg/kg, ip measured for 24 hrs by LC-MS/MS analysis; assay type: ADME, organism-based; details: ICR (CD-1), in vivo
# [17] = MRT (0 to t) in ICR (CD-1) mouse at 10 mg/kg, iv measured for 24 hrs by LC-MS/MS analysis; assay type: ADME, organism-based; details: in vivo
# [18] = MRT (0 to t) in ICR (CD-1) mouse at 50 mg/kg, ip measured for 24 hrs by LC-MS/MS analysis; assay type: ADME, organism-based; details: in vivo
# [19] = Cmax in ICR (CD-1) mouse at 50 mg/kg, ip measured for 24 hrs by LC-MS/MS analysis; assay type: ADME, organism-based; set-up: time 24 hrs, dose 50 mg/kg, route ip; details: in vivo
# MDA-MB-231 [20] = assay: Antiproliferative activity against human MDA-MB-231 cells assessed as inhibition of cell growth incubated for 48 hrs in presence of SAHA by MTT assay; assay type: functional, cell-based; details: MDA-MB-231, 48 h
# [21] = In vivo inhibition of BRD4 in athymic BALB/c nude mouse xenografted with human MDA-MB-231 cells assessed as fold change in c-Myc level in tumor at 25 mg/kg, ip administered for 28 consecutive days by Western blot analysis (reference value: 1); assay type: functional; details: time 28 day
# MDA-MB-231 [22] = assay: Antitumor activity against human MDA-MB-231 cells xenografted in athymic BALB/c nude mouse assessed as the tumor growth inhibition at 25 mg/kg/day, ip administered for 28 days and measured every 3 days by vernier caliper analysis relative to control; assay type: functional; details: MDA-MB-231, 672 h, time 28 day, read-out: TGI
# [23] = Toxicity in athymic BALB/c nude mouse xenografted with human MDA-MB-231 cells assessed as reduction in body weight at 25 mg/kg/day, ip administered for 28 consecutive days; assay type: organism-based; details: in vivo, 672 h, time 28 day
# [24] = Metabolic stability in mouse liver microsomes assessed as intrinsic clearance in presence of NADPH by LC-MS/MS analysis; assay type: ADME, Microsome; details: read-out: CLH
# [25] = Half life in ICR (CD-1) mouse at 50 mg/kg, ip measured for 24 hrs by LC-MS/MS analysis; assay type: ADME, organism-based; details: in vivo
# [26] = Cmax in ICR (CD-1) mouse at 10 mg/kg, iv measured for 24 hrs by LC-MS/MS analysis; assay type: ADME, organism-based; set-up: time 24 hrs, dose 10 mg/kg, route iv; details: in vivo
# Chain of Histone deacetylase 1 (Q13547 whole entry): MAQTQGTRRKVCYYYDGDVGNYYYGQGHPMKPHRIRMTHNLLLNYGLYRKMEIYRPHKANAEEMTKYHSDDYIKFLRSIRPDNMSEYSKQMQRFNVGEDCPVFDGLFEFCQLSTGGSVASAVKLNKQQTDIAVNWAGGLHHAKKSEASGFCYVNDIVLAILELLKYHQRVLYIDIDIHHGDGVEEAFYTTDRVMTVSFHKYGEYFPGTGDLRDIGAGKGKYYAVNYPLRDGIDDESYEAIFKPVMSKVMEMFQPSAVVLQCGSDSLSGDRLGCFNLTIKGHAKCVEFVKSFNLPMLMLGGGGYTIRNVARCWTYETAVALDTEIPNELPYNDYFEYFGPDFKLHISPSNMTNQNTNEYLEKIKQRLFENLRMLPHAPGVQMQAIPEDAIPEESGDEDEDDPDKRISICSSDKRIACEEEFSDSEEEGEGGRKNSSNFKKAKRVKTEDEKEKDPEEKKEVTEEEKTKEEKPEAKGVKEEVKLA
# Chain of Tyrosine-protein kinase JAK1 (P23458 whole entry): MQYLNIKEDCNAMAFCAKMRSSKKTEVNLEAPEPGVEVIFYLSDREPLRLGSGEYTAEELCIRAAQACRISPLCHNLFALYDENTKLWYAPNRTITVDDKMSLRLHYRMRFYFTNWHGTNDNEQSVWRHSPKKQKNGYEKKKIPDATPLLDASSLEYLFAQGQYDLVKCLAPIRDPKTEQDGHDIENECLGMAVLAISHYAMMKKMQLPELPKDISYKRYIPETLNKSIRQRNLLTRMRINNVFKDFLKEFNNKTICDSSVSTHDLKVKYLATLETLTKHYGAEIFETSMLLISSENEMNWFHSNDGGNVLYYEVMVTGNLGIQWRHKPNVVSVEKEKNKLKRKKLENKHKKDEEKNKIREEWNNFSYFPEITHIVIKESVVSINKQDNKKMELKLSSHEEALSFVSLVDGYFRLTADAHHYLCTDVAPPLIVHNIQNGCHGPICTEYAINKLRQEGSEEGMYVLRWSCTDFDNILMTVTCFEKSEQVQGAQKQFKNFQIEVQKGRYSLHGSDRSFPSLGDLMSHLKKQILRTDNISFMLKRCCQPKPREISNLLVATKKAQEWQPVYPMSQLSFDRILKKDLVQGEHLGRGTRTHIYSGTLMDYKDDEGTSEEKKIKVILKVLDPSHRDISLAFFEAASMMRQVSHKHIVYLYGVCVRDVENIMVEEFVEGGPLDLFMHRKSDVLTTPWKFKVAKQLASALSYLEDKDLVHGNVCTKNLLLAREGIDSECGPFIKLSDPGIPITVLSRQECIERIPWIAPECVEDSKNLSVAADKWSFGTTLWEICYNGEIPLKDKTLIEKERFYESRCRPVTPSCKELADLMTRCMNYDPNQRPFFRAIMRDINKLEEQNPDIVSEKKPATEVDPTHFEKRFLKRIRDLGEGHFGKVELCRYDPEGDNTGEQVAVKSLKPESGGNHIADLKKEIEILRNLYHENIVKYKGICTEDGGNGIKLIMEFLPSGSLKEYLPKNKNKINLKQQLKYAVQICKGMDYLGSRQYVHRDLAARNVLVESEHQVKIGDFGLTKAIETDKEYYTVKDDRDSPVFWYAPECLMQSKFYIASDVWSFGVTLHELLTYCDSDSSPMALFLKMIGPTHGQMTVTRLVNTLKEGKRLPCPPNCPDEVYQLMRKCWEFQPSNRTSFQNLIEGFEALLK
smiles,measurement,setting,value
CCCN(N)C(=O)c1ccc(Nc2nc(Nc3ccc(N4CCN(C)CC4)c(F)c3)ncc2C)cc1,IC50,[1],2360 nM
same,IC50,MDA-MB-231 [2],4500 nM
same,IC50,Histone deacetylase 1,> 5000 nM
same,IC50 at 48 h,in vitro,11500 nM
same,IC50,[3],10.4 nM
same,selectivity ratio,[4],2.5
Cc1cnc(Nc2ccc(/C=C/C(=O)NO)cc2)nc1Nc1ccc(Cl)c(NS(=O)(=O)C(C)(C)C)c1,IC50,[1],1290 nM
same,IC50,MDA-MB-231 [2],3400 nM
same,IC50,Histone deacetylase 1,380 nM
same,IC50 at 48 h,in vitro,28600 nM
same,IC50,[3],14.6 nM
same,selectivity ratio,[4],7.1
Cc1cnc(Nc2ccc(N3CCN(C)CC3)c(F)c2)nc1Nc1ccc(C(=O)Nc2ccccc2N)cc1,IC50,[1],1810 nM
same,IC50,MDA-MB-231 [2],2200 nM
same,IC50,Histone deacetylase 1,> 5000 nM
same,IC50 at 48 h,in vitro,9700 nM
same,IC50,[3],5.9 nM
same,selectivity ratio,[4],4.4
Cc1cnc(Nc2ccc(OCCN3CCCC3)cc2)nc1Nc1cccc(S(=O)(=O)NC(C)(C)C)c1 [FEDRATINIB],t1/2,[5],327 min
same,fold change (FC),[6],0.8
same,Activity,GES1,Toxic
same,half-life,[7],5.6 min
same,AUCt,[8],2825 ng·h/mL
same,IC50 at 48 h,[9],610 nM
same,Activity,[10],Toxic
same,IC50,MDA-MB-231 [2],1400 nM
same,fold change (FC),[11],0.5
same,Vdss,[12],8.74 L/kg
same,AUC(0-t) at 24 h,[13],14500 ng·h/mL
same,Tmax,[14],4.8 min
same,fold change (FC),[15],1.3
same,bioavailability,[16],102%
same,MRT(t),[17],113 min
same,MRT last at 24 h,[18],140 min
same,Cmax,[19],9750 ng/mL
same,IC50,MDA-MB-231 [20],460 nM
same,IC50 at 48 h,in vitro,890 nM
same,fold change (FC),[21],1.1
same,inhibition in vivo at 25 mg/kg/day,MDA-MB-231 [22],32%
same,Activity,[23],Non-Toxic
same,CLint scaled,[24],976 mL/min/kg
same,half-life,[25],173 min
same,Cmax,[26],4430 ng/mL
O=C(CCCCCCC(=O)Nc1ccccc1)NO [VORINOSTAT],t1/2,[5],17.4 min
same,AUCt,[8],783 ng·h/mL
same,Vdss,[12],1.59 L/kg
same,AUC(0-t) at 24 h,[13],2550 ng·h/mL
same,Tmax,[14],4.8 min
same,bioavailability,[16],65%
same,MRT(t),[17],7.2 min
same,MRT last at 24 h,[18],40.2 min
same,Cmax,[19],3930 ng/mL
same,half-life,[25],81 min
same,Cmax,[26],6640 ng/mL
